Numbers after ± are expanded uncertainties.
What was measured:
[1] = for specific volume / mass density: 101.33 kPa; for specific volume: X-ray diffraction; for mass density: Liquid, Vibrating tube method
[2] = Solid-liquid equilibrium temperature; details: Crystal, DTA
[3] = Molar enthalpy of transition or fusion; details: Crystal; DSC

O=C(OCCN1CCOCC1)c1cccnc1Nc1cccc(C(F)(F)F)c1
[1]
Details	Glass transition temperature [°C]	Normal melting temperature [°C]	specific volume [m3/kg]
100 K, Crystal	–	–	0.0006857 ± 1e-06
125 K, Crystal	–	–	0.0006872 ± 1e-06
150 K, Crystal	–	–	0.0006912 ± 1.1e-06
175 K, Crystal	–	–	0.000693 ± 1.1e-06
200 K, Crystal	–	–	0.0006968 ± 1.1e-06
225 K, Crystal	–	–	0.0006995 ± 1.1e-06
250 K, Crystal	–	–	0.0007035 ± 1.1e-06
273 K, Crystal	–	–	0.0007063 ± 1.1e-06
298.2 K, Crystal	–	–	0.0007115 ± 1.1e-06
315 K, Crystal	–	–	0.0007135 ± 1.1e-06
320 K, Crystal	–	–	0.0007145 ± 1.1e-06
325 K, Crystal	–	–	0.0007147 ± 1.1e-06
330 K, Crystal	–	–	0.0007156 ± 1.1e-06
332 K, Crystal	–	–	0.0007166 ± 1.1e-06
335 K, Crystal	–	–	0.0007171 ± 1.1e-06
337 K, Crystal	–	–	0.0007171 ± 1.1e-06
340 K, Crystal	–	–	0.0007177 ± 1.1e-06
342 K, Crystal	–	–	0.0007184 ± 1.1e-06
347 K, Crystal	–	–	0.0007192 ± 1.1e-06
Crystal, DTA	–	75.0 ± 0.9	–
Glass, DSC	-23.7 ± 1.2	–	–

Details	Solid-liquid equilibrium temperature [K]	mass density [kg/m3]
[1], 323.15 K	–	1262.9 ± 0.5
[1], 325.65 K	–	1260.6 ± 0.5
[1], 328.15 K	–	1258.4 ± 0.5
[1], 330.65 K	–	1256.2 ± 0.5
[1], 333.15 K	–	1254 ± 0.5
[1], 335.15 K	–	1252.2 ± 0.5
[1], 337.65 K	–	1249.9 ± 0.5
[1], 340.15 K	–	1247.7 ± 0.5
[1], 342.65 K	–	1245.4 ± 0.5
[1], 345.15 K	–	1243.2 ± 0.4
[1], 347.65 K	–	1240.9 ± 0.4
[1], 350.15 K	–	1238.7 ± 0.4
[1], 352.65 K	–	1236.4 ± 0.4
[1], 355.16 K	–	1234.2 ± 0.4
[1], 357.65 K	–	1231.9 ± 0.4
[1], 360.15 K	–	1229.7 ± 0.4
[1], 362.65 K	–	1227.4 ± 0.4
[2], 100 kPa	348.1 ± 0.8	–
[2], 32000 kPa	358.5 ± 3.1	–
[2], 58000 kPa	366.9 ± 3.1	–
[2], 79000 kPa	374.5 ± 3.1	–
[2], 115000 kPa	382.7 ± 3.1	–
[2], 140000 kPa	390.7 ± 3.1	–
[2], 155000 kPa	396 ± 3.1	–
[2], 201000 kPa	403.7 ± 3.1	–
[2], 244000 kPa	421.5 ± 3.1	–

Details	Molar enthalpy of transition or fusion [kcal/mol]
[3]	8.45 ± 0.359
